Patent US12037344B2, “NLRP3 modulators” (INNATE TUMOR IMMUNITY, INC., priority 2018, dated 2024)
Like-named read-outs stand apart in the source and are kept apart here.

How the values were obtained:
TLR7 = biological target: T1, TLR7 (Homo sapiens, UniProt Q9NYK1); experiment: In vitro human TLR7 binding reporter assay (HEK-Blue, NF-kB/AP1-inducible SEAP); format: cell-based; conditions: read-out: TLR7 Agonist EC50
T1 construct: human HEK-Blue cells co-expressing a TLR7 or TLR8 gene
T1 sequence (Q9NYK1 27-1049): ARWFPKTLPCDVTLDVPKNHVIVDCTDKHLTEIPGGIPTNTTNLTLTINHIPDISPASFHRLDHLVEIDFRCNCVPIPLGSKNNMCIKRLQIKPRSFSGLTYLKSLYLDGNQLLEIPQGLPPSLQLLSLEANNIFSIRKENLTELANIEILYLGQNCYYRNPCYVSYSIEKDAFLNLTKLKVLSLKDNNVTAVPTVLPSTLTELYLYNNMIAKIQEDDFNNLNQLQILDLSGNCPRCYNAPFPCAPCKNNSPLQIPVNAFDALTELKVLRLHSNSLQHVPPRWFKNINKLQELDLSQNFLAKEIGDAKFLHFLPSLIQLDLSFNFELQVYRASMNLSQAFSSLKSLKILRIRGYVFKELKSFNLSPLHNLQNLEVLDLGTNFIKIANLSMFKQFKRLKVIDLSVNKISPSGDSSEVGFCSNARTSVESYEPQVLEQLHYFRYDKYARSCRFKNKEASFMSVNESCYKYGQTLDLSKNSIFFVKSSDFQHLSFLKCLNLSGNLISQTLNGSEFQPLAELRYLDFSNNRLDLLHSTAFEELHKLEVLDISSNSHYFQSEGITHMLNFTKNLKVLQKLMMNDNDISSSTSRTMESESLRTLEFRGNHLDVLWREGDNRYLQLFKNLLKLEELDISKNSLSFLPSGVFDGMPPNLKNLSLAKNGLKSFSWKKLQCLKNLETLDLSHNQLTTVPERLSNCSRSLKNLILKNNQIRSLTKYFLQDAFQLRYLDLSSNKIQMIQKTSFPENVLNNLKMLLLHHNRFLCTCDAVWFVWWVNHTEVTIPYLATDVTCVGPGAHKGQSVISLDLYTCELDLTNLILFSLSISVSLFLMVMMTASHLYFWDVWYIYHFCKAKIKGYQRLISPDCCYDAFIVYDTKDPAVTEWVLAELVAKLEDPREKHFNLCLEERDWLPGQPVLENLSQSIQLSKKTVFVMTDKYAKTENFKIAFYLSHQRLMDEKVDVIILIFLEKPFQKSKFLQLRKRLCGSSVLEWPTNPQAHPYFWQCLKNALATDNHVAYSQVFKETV
Procedure, shortened: (§1)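 Cells are seeded and grown for 24 h. Compounds or DMSO are then added and incubated 18 h at 37 °C. Quanti-Blue is added, and SEAP is read after thirty minutes. EC50 values are normalized, with RLU from 50 μM reference standard setting 100% Ymax.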

THP-1 cells = experiment: Measurement of IL-1β production, hTRF protocol (second alternative procedure), THP-1 cells; format: cell-based, human; conditions: Homo sapiens, THP-1, IL-1β production, read-out: NLRP3 hILIB EC50
Procedure, shortened: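 Compounds, dilution series starting at a final 10 μM, were incubated 2 hours at 37° C with PMA-differentiated THP-1 cells (50 ng/ml overnight; 50,000 cells/well, 2% FBS RPMI). Released IL-1β quantified in supernatant by hTRF kit with 1:40 antibody dilution, 4° C overnight, 665/615 nm ratio.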

TLR8 = biological target: T2, TLR8 (Homo sapiens, UniProt Q9NR97); experiment: In vitro human TLR8 binding reporter assay (HEK-Blue, NF-kB/AP1-inducible SEAP); format: cell-based; conditions: read-out: TLR8 Agonist EC50
T2 construct: human HEK-Blue cells co-expressing a TLR7 or TLR8 gene
T2 sequence (Q9NR97 27-1041): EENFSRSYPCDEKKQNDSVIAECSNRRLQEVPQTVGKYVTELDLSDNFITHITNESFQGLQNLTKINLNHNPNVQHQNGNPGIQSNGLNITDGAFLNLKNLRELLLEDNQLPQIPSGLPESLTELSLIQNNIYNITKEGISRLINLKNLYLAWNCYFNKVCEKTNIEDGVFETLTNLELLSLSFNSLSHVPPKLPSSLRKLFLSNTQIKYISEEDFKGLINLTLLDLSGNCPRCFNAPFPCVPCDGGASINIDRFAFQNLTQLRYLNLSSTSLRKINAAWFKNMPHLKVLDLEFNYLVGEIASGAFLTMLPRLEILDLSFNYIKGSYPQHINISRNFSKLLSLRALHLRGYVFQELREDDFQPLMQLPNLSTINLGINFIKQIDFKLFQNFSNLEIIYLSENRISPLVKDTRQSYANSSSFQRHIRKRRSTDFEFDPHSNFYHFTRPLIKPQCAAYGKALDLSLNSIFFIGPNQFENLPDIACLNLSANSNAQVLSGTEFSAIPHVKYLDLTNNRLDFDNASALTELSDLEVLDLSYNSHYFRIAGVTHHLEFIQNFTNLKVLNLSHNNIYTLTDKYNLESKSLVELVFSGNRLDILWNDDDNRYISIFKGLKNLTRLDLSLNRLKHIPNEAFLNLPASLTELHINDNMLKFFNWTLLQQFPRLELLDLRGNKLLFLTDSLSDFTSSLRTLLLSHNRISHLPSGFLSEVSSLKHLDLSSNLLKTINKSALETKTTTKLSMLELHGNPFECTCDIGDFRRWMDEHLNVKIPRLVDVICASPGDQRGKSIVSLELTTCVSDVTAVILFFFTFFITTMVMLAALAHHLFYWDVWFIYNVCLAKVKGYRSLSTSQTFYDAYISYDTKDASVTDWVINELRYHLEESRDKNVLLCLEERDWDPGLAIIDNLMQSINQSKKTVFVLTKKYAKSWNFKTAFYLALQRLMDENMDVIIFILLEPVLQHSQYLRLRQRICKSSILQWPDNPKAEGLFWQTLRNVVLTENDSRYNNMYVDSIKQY
Procedure, shortened: as §1

SMILES	EC50 (TLR7; activity range class) [µM]	EC50 (THP-1 cells; human) [µM]	EC50 (TLR8; activity range class) [µM]	EC50 (TLR7; activity range) [µM]	EC50 (THP-1 cells; human cells) [µM]	EC50 (TLR8; activity range) [µM]
CN(C)Cc1nc2c(N)nc3cc(-c4ccn[nH]4)ccc3c2s1 [Example 143, 2-[(dimethylamino)methyl]-7-(1H-pyrazol-5-yl)-[1,3]thiazolo[4,5-c]quinolin-4-amine]	> 100	0.4	> 100			
Nc1nc2cc(-c3cc[nH]n3)ccc2c2cn(Cc3nnc(-c4ccccc4)o3)nc12 [Example 172]	> 100	0.21	> 100			
CC(=O)NC(C)CCn1cc2c(N)nc3cc(-n4cccn4)ccc3c2n1 (stereo not drawn) [Example 425]				> 100	5.73	> 100
CN(C)Cc1nc2c(N)nc3cc(-c4ccn[nH]4)ccc3c2o1 [Example 145, 2-[(dimethylamino)methyl]-7-(1H-pyrazol-5-yl)-[1,3]oxazolo[4,5-c]quinolin-4-amine]	> 100	2.74	> 100			
Nc1nc2cc(-c3cc[nH]n3)ccc2c2[nH]c(CN3[C@@H]4CC[C@H]3COC4)cc12 [Example 474]				> 100	0.45	> 100
Nc1nc2cc(-c3cc[nH]n3)ccc2c2cn(CCNC(=O)c3cccc(Cl)n3)nc12 [Example 60]	> 100	0.27	> 100			
COC1CCCN(CCn2cc3c(N)nc4cc(-c5ccn[nH]5)ccc4c3n2)C1 (stereo not drawn) [Example 265]	> 100	2.47	> 100			
CC(C(=O)N(C)CCO)n1cc2c(N)nc3cc(-c4ccn[nH]4)ccc3c2n1 (stereo not drawn) [Example 584]				> 100	5.03	> 100
Nc1nc2cc(-c3ccn[nH]3)ccc2c2nn(CCCNS(=O)(=O)c3ccccc3)cc12 [Example 587]				> 100	2.39	> 100
CCNCCn1cc2c(N)nc3cc(-c4ccn[nH]4)ccc3c2n1 [Example 279]	> 100	1.13	> 100			
CCCCn1cc2c(n1)c(N)nc1cc(-c3ccn[nH]3)ccc12 [Example 186]	1 to 20	0.21	> 100			

Now from value to compound:

EC50 (TLR7; activity range class) [µM]	EC50 (THP-1 cells; human) [µM]	EC50 (TLR8; activity range class) [µM]	EC50 (TLR7; activity range) [µM]	EC50 (THP-1 cells; human cells) [µM]	EC50 (TLR8; activity range) [µM]	SMILES
			> 100	0.23	> 100	CC(=O)NCc1cc2c(N)nc3cc(-c4ccn[nH]4)ccc3c2[nH]1 [Example 443]
			> 100	29.6	> 100	CN1CCN(C(=O)CCn2cc3c(N)nc4cc(-c5cc[nH]n5)ccc4c3n2)CC1 [Example 505]
> 100	0.67	> 100				Nc1nc2cc(-c3cc[nH]n3)ccc2c2cn(CCNC(=O)c3ccc(F)cc3)nc12 [Example 42]
> 100	0.65	> 100				Nc1nc2cc(-c3cc[nH]n3)ccc2c2cn(CCN3Cc4ccc(F)cc4C3=O)nc12 [Example 103, 2-{2-[4-amino-7-(1H-pyrazol-3-yl)-2H-pyrazolo[3,4-c]quinolin-2-yl]ethyl}-6-fluoro-2,3-dihydro-1H-isoindol-1-one]
> 100	1.94	> 100				CC(C)OCC(O)Cn1cc2c(N)nc3cc(-c4cc[nH]n4)ccc3c2n1 (stereo not drawn) [Example 371]
> 100	0.7	> 100				Nc1nc2cc(-c3cc[nH]n3)ccc2c2cn(CCNC(=O)c3ccon3)nc12 [Example 69]
			> 100	0.84	> 100	Cc1c(CN[C@H]2CCOC2)[nH]c2c1c(N)nc1cc(-c3cc[nH]n3)ccc12 [Example 469]
> 100	0.8	> 100				Nc1nc2cc(-c3cc[nH]n3)ccc2c2cn(CCNC(=O)c3ncc(F)cc3F)nc12 [Example 66]
			> 100	0.64	> 100	Nc1nc2cc(-c3ccn[nH]3)ccc2c2[nH]c(CN3CCOCC3)cc12 [Example 411, 2-[(morpholin-4-yl)methyl]-7-(1H-pyrazol-5-yl)-1H-pyrrolo[3,2-c]quinolin-4-amine]
			> 100	12.2	> 100	CC(C)(CO)NC(=O)C(C)(C)n1cc2c(N)nc3cc(-c4cc[nH]n4)ccc3c2n1 [Example 522]
